Like-named read-outs stand apart in the source and are kept apart here.
Biological target: T1, thymidine phosphorylase/PD-ECGF (E. coli) (Escherichia coli, UniProt P07650)
T1 construct: purchased
Assay: Thymidine phosphorylase inhibition assay (absorbance at 290 nm)
Assay type: biochemical
Settings: for IC50: Table 1, triplicate; for thymidine phosphorylase inhibition, result in words: compared with standard 7-Deazaxanthine
Experimental: Since human TP is not easy to obtain, we used commercially available recombinant E. coli TP. The primary sequence of TP is frequently preserved throughout evolution as mammalian TP is reported to share 39% sequence resemblance with the TP of E. coli. The mammalian enzyme also shared up to 70% resemblance with the active site residues, and three-dimensional structure of E. coli TP enzyme. The thymidine phosphorylase/PD-ECGF (E. coli) activity was determined by measuring the absorbance at 290 nm spectrophotometrically. The method was described in [50, 51]. In brief, the total reaction mixture of 200 µL contained 145 µL of potassium phosphate buffer (pH 7.4), 30 µL of enzyme (human and E. coli) at concentration 0.05 and 0.002 U, respectively, were incubated with 5 µL of test materials for 10 min at 25 °C in a microplate reader. After incubation, a pre-read at 290 nm was taken to deduce the absorbance of substrate particles. The substrate (20 µL, 1.5 mM), dissolved in potassium phosphate buffer, was immediately added to the plate and continuously read after 10, 20, and 30 min in a microplate reader (SpectraMax, Molecular Devices, CA, USA). All assays were performed in triplicate.
Reactions for above mentioned biological activities were carried out in triplicate. Results were then processed using SoftMax Pro 4.8 software (Molecular Devices, San Jose, CA, USA) and then by Microsoft Excel. The percent inhibition for above mentioned biological activities was calculated by following formula:Percent Inhibition = 100 − (ODtest compound/ODcontrol) × 100(1)

T1 sequence (P07650 whole entry): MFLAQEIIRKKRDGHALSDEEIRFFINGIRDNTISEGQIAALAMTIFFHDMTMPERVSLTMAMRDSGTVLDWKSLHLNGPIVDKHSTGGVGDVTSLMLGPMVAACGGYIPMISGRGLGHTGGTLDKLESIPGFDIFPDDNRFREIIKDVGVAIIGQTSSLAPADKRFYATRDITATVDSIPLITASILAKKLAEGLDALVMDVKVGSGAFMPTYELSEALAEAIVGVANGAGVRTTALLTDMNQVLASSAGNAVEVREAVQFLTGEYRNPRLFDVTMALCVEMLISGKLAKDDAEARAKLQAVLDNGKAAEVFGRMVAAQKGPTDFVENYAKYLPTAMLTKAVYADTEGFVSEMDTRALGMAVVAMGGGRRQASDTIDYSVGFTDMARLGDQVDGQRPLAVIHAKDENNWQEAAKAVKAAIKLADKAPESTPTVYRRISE

With Fc1ccccc1-c1csc2nnc(-c3cnc4ccccc4n3)n12 [Compound 1, 5-(2-flourophenyl)-3(Quinoxalin-2yl)thiazolo[2,3-c][1,2,4]triazole] the IC50 (read-out: IC50 (µM ± SEM)) was 13.6 ± 0.4 µM and the “thymidine phosphorylase inhibition, result in words” value (shortened to “thymidine phosphorylase inhibition”) was “outstanding inhibition”.
Fc1cccc(-c2csc3nnc(-c4cnc5ccccc5n4)n23)c1 [Compound 2, 5-(3-flourophenyl)-3(Quinoxalin-2yl)thiazolo[2,3-c][1,2,4]triazole] was tested, and the IC50 (read-out: IC50 (µM ± SEM)) was 26.1 ± 0.7 µM and the “thymidine phosphorylase inhibition” value was “outstanding inhibition”.
With Fc1ccc(-c2csc3nnc(-c4cnc5ccccc5n4)n23)cc1 [Compound 3, 5-(4-flourophenyl)-3(Quinoxalin-2yl)thiazolo[2,3-c][1,2,4]triazole] the IC50 (read-out: IC50 (µM ± SEM)) was 18.1 ± 0.5 µM and the “thymidine phosphorylase inhibition” value was “outstanding inhibition”.
With Clc1ccccc1-c1csc2nnc(-c3cnc4ccccc4n3)n12 [Compound 4, 5-(2-chlorophenyl)-3(Quinoxalin-2yl)thiazolo[2,3-c][1,2,4]triazole] the IC50 (read-out: IC50 (µM ± SEM)) was 27.4 ± 0.6 µM and the “thymidine phosphorylase inhibition” value was “outstanding inhibition”.
For Clc1cccc(-c2csc3nnc(-c4cnc5ccccc5n4)n23)c1 [Compound 5, 5-(3-chlorophenyl)-3(Quinoxalin-2yl)thiazolo[2,3-c][1,2,4]triazole], the IC50 (read-out: IC50 (µM ± SEM)) was 33.4 ± 0.8 µM and the “thymidine phosphorylase inhibition” value was “outstanding inhibition”.
Clc1ccc(-c2csc3nnc(-c4cnc5ccccc5n4)n23)cc1 [Compound 6, 5-(4-chlorophenyl)-3(Quinoxalin-2yl)thiazolo[2,3-c][1,2,4]triazole] was tested, and the IC50 (read-out: IC50 (µM ± SEM)) was 24.4 ± 0.6 µM and the “thymidine phosphorylase inhibition” value was “outstanding inhibition”.
With O=[N+]([O-])c1ccccc1-c1csc2nnc(-c3cnc4ccccc4n3)n12 [Compound 7, 5-(2-nitrophenyl)-3(Quinoxalin-2yl)thiazolo[2,3-c][1,2,4]triazole] the IC50 (read-out: IC50 (µM ± SEM)) was 34.7 ± 0.8 µM and the “thymidine phosphorylase inhibition” value was “outstanding inhibition”.
O=[N+]([O-])c1ccc(-c2csc3nnc(-c4cnc5ccccc5n4)n23)cc1 [Compound 8, 5-(4-nitrophenyl)-3(Quinoxalin-2yl)thiazolo[2,3-c][1,2,4]triazole] was tested, and the IC50 (read-out: IC50 (µM ± SEM)) was 47.5 ± 0.9 µM and the “thymidine phosphorylase inhibition” value was “moderate inhibition”.
Cc1ccccc1-c1csc2nnc(-c3cnc4ccccc4n3)n12 [Compound 9, 3-(quinoxalin-2-yl)-5-o-tolylthiazolo[2,3-c][1,2,4]triazole] was tested, and the IC50 (read-out: IC50 (µM ± SEM)) was 56.4 ± 1.2 µM and the “thymidine phosphorylase inhibition” value was “moderate inhibition”.
In the case of Cc1cccc(-c2csc3nnc(-c4cnc5ccccc5n4)n23)c1 [Compound 10, 3-(quinoxalin-2-yl)-5-m-tolylthiazolo[2,3-c][1,2,4]triazole], the “thymidine phosphorylase inhibition” value is reported as “inactive”.
With Cc1ccc(-c2csc3nnc(-c4cnc5ccccc5n4)n23)cc1 [Compound 11, 3-(quinoxalin-2-yl)-5-p-tolylthiazolo[2,3-c][1,2,4]triazole] the “thymidine phosphorylase inhibition” value was “inactive”.
In the case of Oc1cccc(-c2csc3nnc(-c4cnc5ccccc5n4)n23)c1 [Compound 12, 3-(3-(quinoxalin-2-yl)thiazolo[2,3-c][1,2,4]triazol-5-yl)phenol], the IC50 (read-out: IC50 (µM ± SEM)) is reported as 33.2 ± 0.75 µM and the “thymidine phosphorylase inhibition” value is reported as “outstanding inhibition”.
With Oc1ccc(-c2csc3nnc(-c4cnc5ccccc5n4)n23)cc1 [Compound 13, 4-(3-(quinoxalin-2-yl)thiazolo[2,3-c][1,2,4]triazol-5-yl)phenol] the IC50 (read-out: IC50 (µM ± SEM)) was 18.3 ± 0.55 µM and the “thymidine phosphorylase inhibition” value was “outstanding inhibition”.
For Oc1ccc(-c2csc3nnc(-c4cnc5ccccc5n4)n23)c(O)c1 [Compound 14, 4-(3-(quinoxalin-2-yl)thiazolo[2,3-c][1,2,4]triazol-5-yl)benzene-1,3-diol], the IC50 (read-out: IC50 (mM ± SEM)) was 13.2 ± 0.4 µM and the “thymidine phosphorylase inhibition” value was “outstanding inhibition”.
For Oc1ccc(O)c(-c2csc3nnc(-c4cnc5ccccc5n4)n23)c1 [Compound 15, 2-(3-(quinoxalin-2-yl)thiazolo[2,3-c][1,2,4]triazol-5-yl)benzene-1,4-diol], the IC50 (read-out: IC50 (mM ± SEM)) was 15.2 ± 0.5 µM and the “thymidine phosphorylase inhibition” value was “outstanding inhibition”.
In the case of Oc1ccc(-c2csc3nnc(-c4cnc5ccccc5n4)n23)cc1O [Compound 16, 4-(3-(quinoxalin-2-yl)thiazolo[2,3-c][1,2,4]triazol-5-yl)benzene-1,2-diol], the IC50 (read-out: IC50 (mM ± SEM)) is reported as 3.5 ± 0.2 µM and the “thymidine phosphorylase inhibition” value is reported as “outstanding inhibition”.
In the case of COc1ccc(-c2csc3nnc(-c4cnc5ccccc5n4)n23)c(O)c1 [Compound 17, 5-methoxy-2-(3-(quinoxalin-2-yl)thiazolo[2,3-c][1,2,4]triazol-5-yl)phenol], the IC50 (read-out: IC50 (mM ± SEM)) is reported as 24.2 ± 0.7 µM and the “thymidine phosphorylase inhibition” value is reported as “outstanding inhibition”.
With COc1ccc(-c2csc3nnc(-c4cnc5ccccc5n4)n23)cc1O [Compound 18, 2-methoxy-5-(3-(quinoxalin-2-yl)thiazolo[2,3-c][1,2,4]triazol-5-yl)phenol] the IC50 (read-out: IC50 (mM ± SEM)) was 16.9 ± 0.6 µM and the “thymidine phosphorylase inhibition” value was “outstanding inhibition”.
In the case of COc1cccc(-c2csc3nnc(-c4cnc5ccccc5n4)n23)c1 [Compound 19, 5-(3-methoxyphenyl)-3-(quinoxalin-2-yl)thiazolo[2,3-c][1,2,4]triazole], the “thymidine phosphorylase inhibition” value is reported as “inactive”.
With COc1ccc(-c2csc3nnc(-c4cnc5ccccc5n4)n23)cc1 [Compound 20, 5-(4-methoxyphenyl)-3-(quinoxalin-2-yl)thiazolo[2,3-c][1,2,4]triazole] the “thymidine phosphorylase inhibition” value was “inactive”.
COc1ccc(O)c(-c2csc3nnc(-c4cnc5ccccc5n4)n23)c1 [Compound 21, 4-methoxy-2-(3-(quinoxalin-2-yl)thiazolo[2,3-c][1,2,4]triazol-5-yl)phenol] was tested, and the IC50 (read-out: IC50 (mM ± SEM)) was 26.2 ± 0.5 µM and the “thymidine phosphorylase inhibition” value was “outstanding inhibition”.
With c1cncc(-c2csc3nnc(-c4cnc5ccccc5n4)n23)c1 [Compound 22, 5-(pyridin-3-yl)-3-(quinoxalin-2-yl)thiazolo[2,3-c][1,2,4]triazole] the “thymidine phosphorylase inhibition” value was “inactive”.
c1ccc2nc(-c3nnc4scc(-c5ccncc5)n34)cnc2c1 [Compound 23, 5-(pyridin-4-yl)-3-(quinoxalin-2-yl)thiazolo[2,3-c][1,2,4]triazole] was tested, and the “thymidine phosphorylase inhibition” value was “inactive”.
Oc1ccccc1-c1csc2nnc(-c3cnc4ccccc4n3)n12 [Compound 24, 2-(3-(quinoxalin-2-yl)thiazolo[2,3-c][1,2,4]triazol-5-yl)phenol] was tested, and the IC50 (read-out: IC50 (mM ± SEM)) was 13.1 ± 0.3 µM and the “thymidine phosphorylase inhibition” value was “outstanding inhibition”.
Oc1cccc(-c2csc3nnc(-c4cnc5ccccc5n4)n23)c1O [Compound 25, 3-(3-(quinoxalin-2-yl)thiazolo[2,3-c][1,2,4]triazol-5-yl)benzene-1,2-diol] was tested, and the IC50 (read-out: IC50 (mM ± SEM)) was 3.2 ± 0.1 µM.

Reference: PMC6471342, “Synthesis of Thymidine Phosphorylase Inhibitor Based on Quinoxaline Derivatives and Their Molecular Docking Study” (Molecules, 2019)
